Test results from US20150196520A1, “METHOD AND PHARMACEUTICAL COMPOSITION FOR TREATING DERMATOPHYTOSIS” (priority 2012, published 2015).

Tests used:
[1] = system: tinea corporis; assay: Topical treatment of tinea corporis, case reports; type: in vivo, humans; details: Example 10: 0.01% test solution in 20% ethanol sprayed three times a day, thigh
Text: The compounds of the present invention were investigated with respect to the treatment of dermatomycosis affecting humans. […] The cases of tinea used in the investigation involved selection of various types of tinea such as vesicular-type tinea, interdigital-type tinea, hyperkeratotic tinea, tinea corporis, tinea unguium, etc.
The dermatophytes that cause dermatophytosis, a typical form of dermatomycosis, are mainly Trichophyton rubrum and Trichophyton mentagrophytes. […] This confirmation of dermatophytes involved planting a sample of skin or nail of an area affected with tinea in a Candida nutrient medium (Nissui Pharmaceutical Co., Ltd.), isolating the dermatophytes that grow, and then confirming the dermatophytes through gene analysis or observation of morphology. A more detailed description of the fungus identification is provided in the examples.
A 1% test solution of ethylenediaminetetraacetic acid trisodium salt prepared in the same manner as Example 6 was applied by spraying once a day onto an area, approximately 5 cm wide and 3 cm long, of a chest affected by tinea corporis, which was denoted by flaring redness.
To 119 mg of ethylenediaminetetraacetic acid tetrasodium salt tetrahydrate was added 20% ethanol to prepare 1 L of 0.01% test solution. This test solution was applied by spraying, three times a day, to tinea corporis denoted by red flaring ridges that had occurred on the thigh.

[2] = system: T. mentagrophytes IFM 59813; assay: CLSI broth microdilution drug-sensitivity test; type: cell-based, Trichophyton mentagrophytes; details: Trichophyton mentagrophytes, IFM59813
Experimental: The antimicrobial activity of the pharmaceutical composition for dermatomycosis according to the present invention was evaluated through drug-susceptibility tests against major pathogenic fungi performed in compliance with the guidelines of the Clinical Laboratory Standards Institute (CLSI), USA. The pathogenic fungi selected were genus Tricophyton (T. rubrum, T. mentagrophytes, T. tonsurans), genus Microsporum (M. gypseum), genus Epidermophyton (E. floccosum), genus Candida (C. albicans), genus Aspergillus (A. fumigatus), and genus Cryptococcus (C. neoformans). […] In the drug-susceptibility tests, Mg ions and Ca ions necessary for conidia (spores) of the fungus to germinate growth were included in the nutrient medium.
The antifungal activity of the compounds of the present invention was evaluated by performing drug-sensitivity tests against various pathogenic fungi. The testing method was a broth microdilution method in conformance with the guidelines of the Clinical Laboratory Standards Institute (CLSI), USA.

[3] = system: interdigital tinea; details: Example 7: 2% test solution sprayed once daily between toes; Trichophyton rubrum
[4] = system: tinea unguium; assay: Treatment of tinea unguium, case reports; type: in vivo, humans; details: Example 11: 2% test solution, big toe immersed in fingerstall; Trichophyton rubrum

SMILES: O=C([O-])CN(CCN(CC(=O)[O-])CC(=O)[O-])CC(=O)[O-].[Na+].[Na+].[Na+].[Na+] [ethylenediaminetetraacetic acid tetrasodium salt]
- time until redness disappeared (tinea cured) [1]: approximately 2 weeks
- MIC [2]: 39 µg/mL
- time until skin symptoms disappeared and healthy skin returned [3]: approximately 2 months
- time until healthy nail grew from the nail base [4]: approximately 2 months
- time until recovery complete with a healthy nail [4]: 6 months
